Where “and” joins values, the source holds several entries; their conditions need not be identical. Equal values may be shown once. Read-outs that look alike come from different tables or passages of the source. Where a SMILES comes first, the peptide text is derived from it. Bridges are numbered along the chain shown (N, C = ends). [ ]: non-standard residue; d: D form. The star is where a group is joined. Asp(3S-OH) = N[C@H](C(=O)O)[C@H](O)C(=O)O; Thr(4-Cl) = N[C@H](C(=O)O)[C@H](O)CCl; X1 = CCCCCCCCC[C@@H](O)CC(=O)*; dDab = NCC[C@@H](N)C(=O)O; Dab = NCC[C@H](N)C(=O)O; Dhb = C/C=C(\N)C(=O)O
Key:
C. parvum = format: cell-based, C. parvum (bovine isolate); conditions: MDBK cells; for Infection % (Day 5) / Infection % (Day 2): % of untreated control; for Infection % (Day 2): mean ± SEM
Experimental: C. parvum (bovine isolate) oocysts used in this study were originally donated by the U.S. Department of Agriculture, Ames, Iowa. The oocysts were isolated from calf manure, preserved in 2.5% potassium dichromate at 4° C., and used within 3 months of purification. Oocysts were decontaminated by suspension in 20% (vol/vol) 1.05% sodium hypochlorite on ice for 20 minutes. Oocysts were then washed three times in Hanks' balanced salt solution ("HBSS") and once in RPMI 1640 (available from Sigma, St. Louis, Mo.). Release of sporozoites was achieved by incubating oocysts in an excystation solution consisting of 0.25% (wt/vol) trypsin (available from Sigma, St. Louis, Mo.) and 0.75% (wt/vol) taurodeoxycholic acid (available from Sigma) in HBSS. The resulting suspension was incubated at 37° C. for 45 minutes and microscopically observed to confirm sporozoite release. Sporozoites were completely separated from intact oocysts and oocyst walls by passage through sterile polycarbonate filters (3 micron pore size, available from Millipore Corp., Bedford, Mass.) twice prior to inoculation of bovine fallopian tube epithelial ("BFTE") cell monolayers.
Coverslips were removed at 5, 24, 48, 72, 96, and 120 hours from the inoculated wells containing monolayers of BFTE cells. The coverslips were washed in RPMI 1640, fixed in 100% methanol for 10 minutes, rinsed twice with 25 mM PBS, and stained with an indirect immunofluorescent assay (IFA) using monoclonal antibody (Mab) 5H11. Mab 5H11 specifically reacts with an antigen present on intermediate stages of C. parvum development. Coverslips were then mounted on glass slides and examined under oil immersion (1000×), using […] microscopy. Parasites were enumerated by counting all developmental stages of C. parvum present in a single scan (67 fields) through the center of each coverslip. The data were statistically compared for significance, using analysis of variance (Fischer's protected least-significant-difference test using a "STATVIEW" statistical analysis application developed by Abacus Concepts, Inc., Berkeley, Calif.).
Madin-Darby bovine kidney (MDBK) epithelial cells were also used to culture C. parvum in this study. Dulbecco's modified Eagle medium (DMEM) with 10% FBS was used for routine passage of MDBK cells purchased from American Type Collection for Culture (Rockville, Md.). Mycoplasma contamination was periodically checked with Hoechst staining (Uphoff et al., 1992). At confluence, MDBK cells were lifted from culture flasks with trypsin, enumerated, and redistributed to assay plates. Ninety-six well cell culture plates were employed to assess cytotoxicity of testing agents or the parasite or both to host cells using neutral red staining or lactic dehydrogenase (LDH) assay.
For enumeration of C. parvum development in culture, 24-well plates were used with a sterile glass coverslip placed in each well. DMEM base was used at and post C. parvum inoculation.
A single concentration of Syr-E at 15 μg/ml was used to treat MDBK cells at pH 7 with C. parvum infection. Group 1 served as an infection control, receiving no Syr-E treatment. Syr-E was administered 1 day prior to parasite inoculation to groups 2, 4, and 5, at the inoculation day to groups 3-5, and 1 day post inoculation to groups 3 and 5, respectively. Following specified administration day(s), supernatants of corresponding wells containing Syr-E were removed and replaced with fresh DMEM base. Cytotoxicity was monitored using lactic dehydrogenase (LDH) assay on day 1 post inoculation. Three coverslips from each group were collected on days 2 and 5 post inoculation, were fixed, and were stained with the specific IFA, as described with reference to Example II.
Therefore, MDBK cells were employed to explore the inhibitory effect of Syr-E on C. parvum development in vitro, as shown in FIG. 3. […]

BFTE cells = assay: Toxic effect of Syr-E on BFTE host cells at pH 6.3 (neutral red assay, visual observation); format: cell-based, bovine
Experimental: Primary BFTE cell cultures were prepared from bovine fallopian tubes (FT). Fat was trimmed from the serosal surfaces, mucus was gently squeezed from the lumens, and FT were decontaminated by being submerged in 70% ethanol for 30 seconds. The FT were then transferred to sterile culture petri dishes containing HBSS and washed twice. The BFTE cells were harvested either by flushing the FT with HBSS, using a 10 ml syringe equipped with a mouse feeding needle, or by opening the FT lengthwise with scissors and scraping the mucosal surfaces. The BFTE cells were subsequently washed in HBSS by centrifugation at 200×g (force of gravity) for 10 minutes, planted in 75-cm^2 flasks containing RPMI 1640 and cultured in a 5% CO2 incubator at 37° C. for 72 to 120 hours. When the cell lines reached confluency, they were trypsinized, split, and planted onto cover slips positioned on the bottoms of individual wells in 24-well tissue culture plates. When cells reached 80% confluency, they were inoculated with either 10^5 oocysts or 4×10^5 sporozoites per well. Plates were then maintained at 37° C. in a candle jar environment (17% O2, 3% CO2, 80% N2). Growth medium was changed in each well every 72 hours. In wells inoculated with oocysts, the medium was first changed at 24 hours to remove any unexcysted oocysts.
Neutral red assay was used to measure viewable cell damage, such as obvious plaque forming and cell peeling. Briefly, 0.1 ml of neutral red was directly added to supernatant in each well of 96-well plates at the termination of the culture. Following 1-hr incubation at 37°C., the supernatant mixture from each well was discarded and cells at the bottom of the wells were rinsed twice with PBS. A volume of 0.2 ml/well extract buffer was added and the content in each well was well mixed prior to 30 min. incubation in the dark at 25°C. cytotoxicity was quantitatively read using a Microplate Autoreader (Bio-Tek Instruments, Inc., Winooski, Vt.) with a wavelength set at 540 nm.
Samples were collected on day 2 post inoculation. Each group consisted of both uninfected (empty bar) and C. parvum infected (solid bar) subgroups. In group 1, the medium pH was adjusted to 7.2, no Syr-E was used, and the cytotoxicity of the uninfected subgroup set to zero percent. Medium pH in groups 2-8 was adjusted to 6.3 and groups 3-8 received Syr-E treatments at 1, 2, 4, 8, 16, and 32 ,g/ml, respectively. Data are presented as the means +/- standard error of the mean. The cytotoxic effect increased from approximately 40% to 60% as Syr-E concentrations were elevated from 1 to 16 μg/ml, presenting a dose-dependent response. […] BFTE cells were 98% destroyed when Syr-E concentration reached 32 μg/ml at pH 6.3.

[1] = Group 2: Syr-E 15 μg/ml, 1 day, prior to inoculation, pH 7
[2] = Group 3: Syr-E 15 μg/ml, 2 days, at and post inoculation, pH 7
[3] = Group 4: Syr-E 15 μg/ml, 2 days, prior to and at inoculation, pH 7
[4] = Group 5: Syr-E 15 μg/ml, 3 days, prior to, at, and post inoculation, pH 7

C/C=C1\NC(=O)[C@H](Cc2ccccc2)NC(=O)[C@H](CCCNC(=N)N)NC(=O)[C@H](CCN)NC(=O)[C@@H](CCN)NC(=O)[C@@H](CO)NC(=O)[C@@H](NC(=O)C[C@H](O)CCCCCCCCC)COC(=O)[C@H]([C@H](O)CCl)NC(=O)[C@H]([C@H](O)C(=O)O)NC1=O [Syr-E, Syringomycin-E] (X1-S[dS][dDab][Dab]RF[Dhb][Asp(3S-OH)][Thr(4-Cl)]; ester 1-C)
Infection % (Day 5) (C. parvum; [1]): 22% and 21.9% | Infection % (Day 2) (C. parvum; [1]): 13% and 12.9 ± 2.7% | Infection % (Day 5) (C. parvum; [2]): 11.7% | Infection % (Day 2) (C. parvum; [2]): 10.2 ± 2.1% | Infection % (Day 5) (C. parvum; [3]): 1.4% | Infection % (Day 2) (C. parvum; [3]): 1.1 ± 0.2% | Infection % (Day 5) (C. parvum; [4]): 1.0% | Infection % (Day 2) (C. parvum; [4]): 0.9 ± 0.1% | infection percentage of the untreated control (C. parvum; Syr-E 15 μg/ml, day 5 post inoculation): 14.7% | infection percentage (C. parvum; Syr-E 15 μg/ml, treatment prior to and at the inoculation, pH 7, day not given): approximately 1% | cytotoxic effect (neutral red assay) (BFTE cells; Syr-E 1 μg/ml, BFTE cells, pH 6.3, day 2 post inoculation): approximately 40% | cytotoxic effect (neutral red assay) (BFTE cells; Syr-E 16 μg/ml, BFTE cells, pH 6.3, day 2 post inoculation): ~60% | BFTE cells destroyed (neutral red assay) (BFTE cells; Syr-E 32 μg/ml, pH 6.3, day 2 post inoculation): 98% | visual cell damage (BFTE cells; Syr-E 0.5-9.0 μg/ml, BFTE cells, pH 6.3): Visual cell plaques were observed

— patent US6310037A, “Method of controlling protozoan infections using syringomycin-family lipodepsipeptides” (Utah State University, priority 1999, dated 2001)
